test system: SANT-1-resistant BCC line; test: Proliferation of SANT-1-resistant BCC line; assay type: cell-based, mouse; details: not given
Text: (§1) Murine basal cell carcinomas (BCCs) were derived from Ptch1+/−; p53−/− mice subjected to UV radiation [Aszterbaum et al., Nat. Med. (1999) 5:1285-91]. A line resistant to the Smo antagonist SANT-1 was obtained by culturing the cells in media containing increasing concentrations of the inhibitor until the majority of cells were killed and resistant clones emerged.

Row | SMILES | Proliferation of SANT-1-resistant line
1 | CCOc1ccc(-[n+]2cc(-c3ccc(-c4ccccc4)cc3)n3c2CCCCC3)cc1 [Compound A-8] | able to block the proliferation

test system: Gli2; test: Gli2 trafficking assay in NIH 3T3 cells; assay type: cell-based; details: ShhN treatment
Procedure: NIH 3T3 cells were also employed in an assay to quantify Gli2 trafficking NIH-3T3 cells were seeded into 24-well plates containing poly-D-lysine-coated 12-mm glass coverslips (65,000 cells/well) and cultured for 24 hrs. […] Each compound or vehicle treatment was conducted in biological triplicates in the presence or absence of 10% (v/v) ShhN-conditioned medium. The cells were subsequently fixed in PBS containing 4% (v/v) paraformaldehyde for 12 min at room temperature, washed three times with PBS, permeabilized in PBS containing 0.5% (v/v) Triton X-100 for 5 min, and washed again twice in PBS. […] After three PBS washes, the coverslips were mounted onto slides using Prolong Gold Antifade Reagent with DAPI (Invitrogen, P36931). The cells were imaged using a Plan Apochromat 63×/1.4-0.6 oil immersion objective on an upright Leica DM4500B compound microscope. Ciliary Gli2 levels were quantified by determining total pixel intensity within a circular region manually placed at the distal end of each cilium and subtracting background fluorescence in an adjacent region of equivalent size. A total of 30 cilia from three coverslips were analyzed to determine the average ciliary Gli2 level for each experimental condition as a measure of Gli2 trafficking.

Row | SMILES | Effect on ShhN-induced Gli2 accrual at the ciliary distal tip
2 | CC1=C2C[C@H]3[C@@H](CC=C4C[C@@H](O)CC[C@@]43C)[C@@H]2CC[C@]12O[C@@H]1C[C@H](C)CN[C@H]1[C@H]2C [cyclopamine, reference compound] | cyclopamine-sensitive

test system: BCC cell line; test: Murine basal cell carcinoma (BCC) cell proliferation; assay type: cell-based, mouse; details: not given
Text: as §1

Row | SMILES | Proliferation of original BCC cell line
3 | CCOc1ccc(-[n+]2cc(-c3ccc(-c4ccccc4)cc3)n3c2CCCCC3)cc1 [Compound A-8] | able to block the proliferation

same assay, conditions: 750 nM, dose-dependent

Row | SMILES | BCC proliferation
4 | CCOc1ccc(-[n+]2cc(-c3ccc(-c4ccccc4)cc3)n3c2CCCCC3)cc1 [Compound A-8] | 20 % of control

test system: medulloblastoma allograft tumors; test: Murine medulloblastoma allograft model; assay type: in vivo, mouse; details: 2 mg/kg/day, intraperitoneal, day 5
Procedure: Murine medulloblastoma allograft model: Ptch1+/−; p53+/−; Math1:GFP mice were mated to generate pups with the appropriate genotype of Ptch1+/−; p53−/−; Math1:GFP. These mice will get medulloblastoma tumors when they are 6 to 10 weeks of age. The primary medulloblastoma tumors were harvested, dissected, dissociated by papain treatment and tissue trituration, and injected into the flanks of nude mice as a Matrigel mixture (50 μL of 2×10^7 tumor cells mixed with 50 μL of Matrigel). Secondary and tertiary tumors can subsequently be derived from these allografts as necessary. The length, width, and depth of each allograft were monitored, and compound testing began when the tumors reached a volume of 150 mm3 (approximately one week after tumors were first visible). The compounds were dissolved in a minimum volume of DMSO, and the DMSO solution was mixed with sterile corn oil so that the DMSO constituted less than 10% of the total volume. The drug was administered by intraperitoneal injection (50 μL), with each daily dose divided into two portions and administered at 12-hour intervals. The Smoothened antagonist vismodegib was administered at 50 mg/kg/day as a positive control.

Row | SMILES | Tumor volume compared to control
5 | CCOc1ccc(-c2c[n+](-c3ccc(OC)cc3)c3n2-c2ccccc2CC3)cc1.[Br-] [Compound E-1] | reduced tumor volume by half

test system: Hh pathway activity; test: Sufu-KO-LIGHT cell assay, Gli-dependent firefly luciferase reporter; assay type: cell-based, mouse; details: Mus musculus
Procedure: Sufu-KO-LIGHT cells were derived from Sufu knockout mouse embryonic fibroblasts according to the method of Chen et al. [Genes Dev. 2009; 23(16):1910-28.] The cells were co-transfected with the zeocin resistance vector (pVgRXR, Invitrogen) and a firefly luciferase reporter driven by eight Gli binding sites and a γ-crystallin basal promoter (8XGliBS-FL) [see Sasaki et al. Development. 1997; 124(7):1313-22.2]. […] Sufu-KO-LIGHT cells were cultured in DMEM (Invitrogen, 11965) containing 10% (v/v) fetal bovine serum (Invitrogen, No. 26140), 150 μg/mL zeocin (Invitrogen, R250-01), 1 mM sodium pyruvate (Invitrogen, 11360) and 1× PenStrep (Gibco, 15140).
All test compounds were dissolved in DMSO at 50 mM, serially diluted by 1:3, 1:4 or 1:5 in a 96-well translucent microplate (Greiner bio-one, 650201) and stored at −20° C. These serial dilutions were added to assay media freshly with final DMSO concentration of 0.2% (v/v).
The Sufu-KO-LIGHT cell assay provides a measure of Hh pathway activity and cytotoxicity. Sufu-KO-LIGHT cells were seeded into a 96-well plate (35,000 cells/well), cultured to confluency for 24 hrs and then incubated with test compounds in DMEM without phenol red (Invitrogen, 26140) containing 0.5% (v/v) fetal bovine serum (Invitrogen, No. 26140), 150 μg/mL zeocin (Invitrogen, R250-01), 1 mM sodium pyruvate (Invitrogen, 11360), 1× PenStrep (Gibco, 15140) for 16 hrs. Bright Glo (Promega, E2620) reagent (50 μL/well) was added to the cells, and luciferase activities were determined on a microplate luminometer (Veritas). To assess cytotoxicity, after 15 hrs of incubation with test compounds, CellTiter 96 AQueous One Solution Cell Proliferation Assay (Promega, G3580) reagent (20 μL/well) was added. Cell viability was determined by measuring absorption at 490 nm after 1 hr of incubation on a microplate spectrophotometer (Benchmark Plus, Bio-Rad). Biological triplicates were analyzed for each test compounds.

Row | SMILES | IC50 [µM]
6 | Brc1ccc(-c2c[n+](-c3ccccc3)c3n2CCCCC3)cc1 [Compound A-2] | 7.9
7 | FC(F)(F)c1cccc(-[n+]2cc(-c3ccc(Br)cc3)n3c2CCCCC3)c1 [Compound A-5] | 12.3
8 | COc1ccccc1-[n+]1cc(-c2ccc(Br)cc2)n2c1CCCCC2 [Compound A-3] | 0.34
9 | COc1ccc(-c2c[n+](-c3ccc(Br)cc3)c3n2CCCCC3)cc1 [Compound A-15] | 3.3
10 | Clc1ccc(-[n+]2cc(-c3ccc(Br)cc3)n3c2CCCCC3)cc1 [Compound A-6] | 11.7
11 | Brc1ccc(-c2c[n+](-c3ccc4c(c3)OCCO4)c3n2CCCCC3)cc1 [Compound A-4] | 5

same assay, conditions: Mus musculus; Table 1; assay not given, A-1 value equals the Sufu-KO-LIGHT value; read-out: IC50

Row | IC50 [µM] | SMILES
12 | 13.9 | COc1ccc(-[n+]2cc(-c3ccc(OC(F)F)cc3)n3c2CCCCC3)cc1 [Compound A-12]
13 | 2.9 | CCc1ccc(-[n+]2cc(-c3ccc(OC(F)F)cc3)n3c2CCCCC3)cc1 [Compound A-17]
14 | 0.19 ± 0.14 | CCOc1ccc(-[n+]2cc(-c3ccc(-c4ccccc4)cc3)n3c2CCCCC3)cc1 [Compound A-8]
15 | 2.5 | COc1ccc(-[n+]2cc(-c3ccc(Cl)cc3)n3c2CCCCC3)cc1 [Compound A-11]
16 | 0.03 | COc1ccccc1-[n+]1cc(-c2ccc(-c3ccccc3)cc2)n2c1CCCCC2 [Compound A-19]
17 | 7.4 | CCOc1ccc(-c2c[n+](-c3cccc(C(F)(F)F)c3)c3n2CCCCC3)cc1 [Compound A-16]
18 | 3 | CCOc1ccc(-[n+]2cc(-c3ccc(Cl)cc3)n3c2CCCCC3)cc1 [Compound A-7]
19 | 1.7 | CCOc1ccc(-[n+]2cc(-c3ccccc3)n3c2CCCCC3)cc1 [Compound A-9]
20 | 2.5 | CCOc1ccc(-[n+]2cc(-c3ccc(OC)cc3)n3c2CCCCC3)cc1 [Compound A-10]
21 | 0.08 | CCOc1ccc(-c2c[n+](-c3ccccc3OC)c3n2CCCCC3)cc1 [Compound A-18]
22 | 17.5 | FC(F)Oc1ccc(-[n+]2cc(-c3ccc(Cl)cc3)n3c2CCCCC3)cc1 [Compound A-13]

same assay, conditions: Mus musculus; Table 2; assay not given; read-out: IC50

Row | IC50 [µM] | SMILES
23 | 3.1 | COc1ccc(-c2cn3c([n+]2-c2ccccc2OC)CCCCC3)cc1 [Compound C-2]
24 | 4.2 | COc1ccc(-c2cn3c([n+]2-c2ccc(C)cc2)CCCCC3)cc1 [Compound C-3]
25 | 27 | Clc1ccc(-c2cn3c([n+]2-c2ccc(Cl)cc2)CCCCC3)cc1 [Compound C-9]
26 | 4.1 | COc1ccc(-[n+]2c(-c3ccccc3)cn3c2CCCCC3)cc1 [Compound C-8]
27 | 11.5 | COc1ccc(-c2cn3c([n+]2-c2ccc(Cl)cc2)CCCCC3)cc1 [Compound C-4]
28 | 6.3 | COc1ccc(-[n+]2c(-c3ccc(OC(F)F)cc3)cn3c2CCCCC3)cc1 [Compound C-7]
29 | 1.6 | CCOc1ccc(-[n+]2c(-c3ccc(OC)cc3)cn3c2CCCCC3)cc1 [Compound C-1]
30 | 11.7 | COc1ccc(-[n+]2c(-c3ccc(Cl)cc3)cn3c2CCCCC3)cc1 [Compound C-6]
31 | 1.2 | CCOc1ccc(-c2c(C)n3c([n+]2-c2ccc(OCC)cc2)CCCCC3)cc1 [Compound C-5]

same assay, conditions: Mus musculus; Table 3; assay not given; read-out: IC50

Row | IC50 [µM] | SMILES
32 | 0.14 | CCOc1ccc(-c2c[n+](-c3ccc(OC)cc3)c3n2-c2ccccc2CC3)cc1.[Br-] [Compound E-1]
33 | 0.96 | CCOc1ccc(-[n+]2cc(-c3ccccc3)n3c2CCC3)cc1 [Compound D-1]
34 | 2.4 | COc1ccc(-[n+]2cc(-c3ccc(Cl)cc3)n3c2SCCC3)cc1 [Compound D-5]
35 | 3.1 | COc1ccc(-c2c[n+](-c3ccc(OC)cc3)c3n2CCS3)cc1 [Compound D-2]
36 | 1.1 | COc1ccc(-[n+]2cc(-c3ccc(C)cc3)n3c2SC(C)C3)cc1 [Compound D-3]
37 | 2.6 | COc1ccc(-[n+]2cc(-c3ccc(Br)cc3)n3c2SCC3C)cc1 [Compound D-4]
38 | 14.1 | COc1ccc(-c2c[n+](-c3ccc(OC)cc3)c3n2CCOC3)cc1 [Compound D-6]

target: T1, Smo (Mus musculus, UniProt P56726); test: Smo trafficking assay in NIH 3T3 cells; assay type: cell-based; details: Hh-responsive cells, ShhN stimulation
T1 construct: endogenous in cells; host or cells: NIH 3T3
T1 sequence (P56726 33-793): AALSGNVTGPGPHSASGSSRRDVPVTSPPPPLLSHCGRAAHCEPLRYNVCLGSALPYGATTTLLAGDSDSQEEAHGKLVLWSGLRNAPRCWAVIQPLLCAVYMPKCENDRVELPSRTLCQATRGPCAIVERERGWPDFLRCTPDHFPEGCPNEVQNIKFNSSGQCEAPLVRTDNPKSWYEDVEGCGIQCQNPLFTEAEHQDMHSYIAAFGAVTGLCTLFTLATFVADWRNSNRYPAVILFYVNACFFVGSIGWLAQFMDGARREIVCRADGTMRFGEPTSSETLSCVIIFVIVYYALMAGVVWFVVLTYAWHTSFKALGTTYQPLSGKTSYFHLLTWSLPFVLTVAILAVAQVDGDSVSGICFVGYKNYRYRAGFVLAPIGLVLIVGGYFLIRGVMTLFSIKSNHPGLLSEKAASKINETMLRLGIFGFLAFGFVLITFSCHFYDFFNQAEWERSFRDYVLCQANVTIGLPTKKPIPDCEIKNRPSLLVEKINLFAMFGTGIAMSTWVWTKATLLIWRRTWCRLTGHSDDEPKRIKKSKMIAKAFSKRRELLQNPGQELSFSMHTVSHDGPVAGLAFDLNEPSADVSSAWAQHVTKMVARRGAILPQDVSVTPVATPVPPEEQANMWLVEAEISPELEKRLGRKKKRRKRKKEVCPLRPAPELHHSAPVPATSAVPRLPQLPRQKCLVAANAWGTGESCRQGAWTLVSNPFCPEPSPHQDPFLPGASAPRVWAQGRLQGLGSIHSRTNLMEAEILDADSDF
Text: The cells were imaged using a Plan Apochromat 63×/1.4-0.6 oil immersion objective on an upright Leica DM4500B compound microscope.

Row | SMILES | Effect on Smo localization / trafficking
39 | CC1=C2C[C@H]3[C@@H](CC=C4C[C@@H](O)CC[C@@]43C)[C@@H]2CC[C@]12O[C@@H]1C[C@H](C)CN[C@H]1[C@H]2C [cyclopamine, reference compound] | alters Smo trafficking

test system: BCC allograft tumors; test: Murine BCC allograft model; assay type: in vivo, mouse; details: 0.01% solution, topical, day 14
Procedure: Murine BCC allograft model: Ptch1+/−; K14:Cre-ER2; p53fl/fl mice were injected with tamoxifen (to knock out p53) at six weeks of age, and at 8 weeks of age they were given one dose of 4 Gy of ionizing radiation. After BCCs formed and grew to 5-7 mm in diameter (typically between 6-8 months of age), they were harvested and dissociated to prepare a cell suspension. A mixture of the cell suspension and Matrigel was then injected subcutaneously into NOD/SCID mice purchased from Jackson Laboratories. Once the allografted tumors became visible, they were monitored with digital calipers and the volume was estimated by the formula (d^2)*D/2, where d is the smallest diameter of the tumor and D is the largest diameter. The compound was applied topically to the tumor as a DMSO solution (100 μL per application).

Row | SMILES | Tumor volume compared to control
40 | CCOc1ccc(-[n+]2cc(-c3ccc(-c4ccccc4)cc3)n3c2CCCCC3)cc1 [Compound A-8] | reduced tumor volume by half
